In general, MIC refers to the lowest concentration found to suppress growth. The pIC50 is the IC50 on a negative log10 scale, so that one unit is a factor of ten. For orientation: Tm means the temperature at which the thermal transition is half complete.

The subject of assay [1] is Escherichia coli. The experiment in a line: Synergistic antibacterial activity against Escherichia coli assessed as meropenem MIC at 64 microg/ml measured after 16 hrs by CLSI protocol based broth microdilution method (reference value: 64 microg/ml). The class given is functional. The note with it: dose 64 µg/ml. Background: Dilution methods test growth across graded concentrations, often in twofold steps.

The target in assay [2] is Metallo-beta-lactamase type 2 (Bacteria) (UniProt C7C422). The assay can be described thus: Inhibition of recombinant NDM-1 (unknown origin) expressed in Escherichia coli BL21 (DE3) cells using meropenem as substrate assessed as residual activity at 20 uM relative to control.
Chain of Metallo-beta-lactamase type 2 (Bacteria) (C7C422 whole entry): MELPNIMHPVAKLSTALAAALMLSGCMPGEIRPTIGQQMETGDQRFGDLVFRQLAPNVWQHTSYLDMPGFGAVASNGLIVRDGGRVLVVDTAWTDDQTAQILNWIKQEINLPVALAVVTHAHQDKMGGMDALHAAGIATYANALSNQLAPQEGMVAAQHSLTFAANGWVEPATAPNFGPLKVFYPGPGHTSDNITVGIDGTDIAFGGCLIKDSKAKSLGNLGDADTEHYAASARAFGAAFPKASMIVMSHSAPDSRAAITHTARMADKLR
For assay [3], the system named is Escherichia coli. The assay can be described thus: Synergistic antibacterial activity against Escherichia coli BL21 (DE3) harboring serine beta lactamase KPC-2 assessed as reduction in meropenem MIC upto 256 microg/ml in presence of meropenem by microdilution checkerboard assay. The class given is functional, organism-based. The following applies: dose <= 256.0 µg/ml.

Assay [4] has as its system Escherichia coli. The assay can be described thus: Synergistic antibacterial activity against Escherichia coli BL21 (DE3) harboring serine beta lactamase OXA-48 assessed as meropenem MIC at 64 microg/ml measured after 16 hrs by CLSI protocol based broth microdilution method (reference value: 1 microg/ml). The class given is functional. The following applies: dose 64 µg/ml.

Assay [5] relates to Bacteria. The experiment in a line: Inhibition of recombinant serine beta lactamase KPC-2 (unknown origin) expressed in Escherichia coli BL21 (DE3) cells assessed as reduction in residual activity at 0.25 to 5 uM. The note with it: dose 0.25-5 µM, time 360.0 min, TDE = time-dependent effect.
The target of assay [6] is Metallo-beta-lactamase type 2 (Bacteria) (UniProt C7C422). The assay can be described thus: Inhibition of recombinant NDM-1 (unknown origin) expressed in Escherichia coli BL21 (DE3) cells assessed as reduction in residual activity at 0.3 to 5 uM. The following applies: dose 0.3-5 µM, time 20.0 hrs, TDE = time-dependent effect.
Assay [7] deals with Escherichia coli. The assay can be described thus: Synergistic antibacterial activity against Escherichia coli clinical isolate 06 assessed as meropenem MIC at 64 microg/ml measured after 16 hrs by CLSI protocol based broth microdilution method (reference value: 128 microg/ml). The class given is functional. The note with it: dose 64 µg/ml.
A short description of assay [8]: Inhibition of recombinant metallo-beta-lactamase IMP-1 (unknown origin) expressed in Escherichia coli BL21 (DE3) cells using meropenem as substrate by spectrometric analysis. More on the design: species or system Bacteria.
In assay [9] the test system is Bacteria. The experiment in a line: Binding affinity to recombinant metallo-beta-lactamase IMP-1 (unknown origin) expressed in Escherichia coli BL21 (DE3) cells assessed as thermal stabilization by measuring change in melting temperature at 50 uM incubated under 25 to 80 degreeC by SYPRO orange dye based thermal shift assay (reference value: 71.9 degreeC).
Assay [10] addresses Metallo-beta-lactamase type 2 (Bacteria) (UniProt C7C422). The assay can be described thus: Destabilization of recombinant NDM-1 (unknown origin) expressed in Escherichia coli BL21 (DE3) cells assessed as thermal stabilization by measuring melting temperature at 50 uM incubated under 25 to 80 degreeC by SYPRO orange dye based thermal shift assay (reference value: 52.6 degreeC).

The subject of assay [11] is Klebsiella pneumoniae. The experiment in a line: Synergistic antibacterial activity against KPC and NDM-1 producing Klebsiella pneumoniae assessed as meropenem MIC at 64 microg/ml incubated for 16 hrs by CLSI protocol based broth microdilution method (reference value: 256 microg/ml). The class given is functional. The following applies: dose 64 µg/ml.
The test system of assay [12] is Escherichia coli. The assay can be described thus: Synergistic antibacterial activity against Escherichia coli clinical isolate 24 assessed as fold decrease in meropenem MIC at 64 microg/ml measured after 16 hrs by CLSI protocol based broth microdilution method. The class given is functional. The following applies: dose 64 µg/ml.
The test system of assay [13] is Escherichia coli. The assay can be described thus: Synergistic antibacterial activity against Escherichia coli BL21 (DE3) harboring serine beta lactamase OXA-48 assessed as decrease in bacterial colony at 128 microg/ml incubated for 12 hrs in presence of meropenem by imaging analysis. The class given is functional, organism-based. The following applies: dose 128.0 µg/ml.

The test system of assay [14] is Escherichia coli. The experiment in a line: Synergistic antibacterial activity against Escherichia coli clinical isolate 04 assessed as meropenem MIC at 64 microg/ml measured after 16 hrs by CLSI protocol based broth microdilution method (reference value: 256 microg/ml). The class given is functional. The note with it: dose 64 µg/ml.
Assay [15] deals with Bacteria. The experiment in a line: Irreversible inhibition of recombinant serine beta lactamase KPC-2 (unknown origin) expressed in Escherichia coli BL21 (DE3) cells using cefazolin as substrate assessed as reduction in residual activity at 5 uM preincubated for 6 hrs followed by dialysis and measured after 24 hrs.

pIC50: −log10 of the molar value. Calls of active or inactive are those of the source. The calls are words filed in the database; no cut-off is given here.

Consider `O=C(CCCc1ccccc1)NOC(=O)OCc1ccccc1`, for which the MIC in assay [1] was found to be 64 µg/mL; in assay [4], 0.5 µg/mL; in assay [7], 64 µg/mL; in [11] it was 256 µg/mL; in assay [14], 128 µg/mL. The Activity in assay [2] was under 10%. In addition, the outcome in [3] and in [13] was Active. In addition, the inhibition entry in assay [5] and in assay [6] was “Tde” throughout. In addition, the pIC50 in [8] is 5.88. The Tm is 74.3 °C in assay [9] and 49.8 °C in assay [10]. Further, in assay [12], the “fold change (FC)” value is reported as 2. The inhibition result in assay [15] was “Active”.

Values taken from ChEMBL document CHEMBL5518172, “Discovery of hydroxamate as a promising scaffold dually inhibiting metallo- and serine-β-lactamases” (Eur J Med Chem, 2024).
